We go through 17 compounds from ChEMBL document CHEMBL3132801, “Meridianin G and its analogs as antimalarial agents” (Medchemcomm, 2013).

Data set [1] has as its system Plasmodium falciparum. The data set can be described thus: Antimicrobial activity against Plasmodium falciparum D6 after 72 hrs by LDH activity assay. In kind it is functional, organism-based.
The subject of the next data set is Leishmania donovani. The data set can be described thus: Antileishmanial activity against Leishmania donovani promastigotes after 48 hrs by Alamar Blue assay. In kind it is functional, organism-based. (Resazurin is reduced to fluorescent resorufin, in cell work by metabolically active cells.)
For data set [2], the system named is Plasmodium falciparum. Kind of data set: Antimicrobial activity against Plasmodium falciparum W2 after 72 hrs by LDH activity assay. In kind it is functional, organism-based.
Data set [3] is described as follows: Selectivity index, ratio of IC50 for pig LLC-PK1 cells to IC50 for Plasmodium falciparum W2. In kind it is toxicity, cell-based. To be noted: read-out: Ratio IC50.
A short description of data set [4]: Selectivity index, ratio of IC50 for human HepG2 cells to IC50 for Plasmodium falciparum D6. In kind it is toxicity, cell-based. To be noted: read-out: Ratio IC50.
Data set [5] is described as follows: Selectivity index, ratio of IC50 for african green monkey Vero cells to IC50 for Plasmodium falciparum D6. In kind it is toxicity, cell-based. The following applies: read-out: Ratio IC50.
Data set [6] in a line: Selectivity index, ratio of IC50 for human HepG2 cells to IC50 for Plasmodium falciparum W2. The following applies: read-out: Ratio IC50. In kind it is toxicity, cell-based.
The subject of the next data set is Vero. Kind of data set: Cytotoxicity against african green monkey Vero cells after 48 hrs by Neutral Red assay. In kind it is cell-based. The following applies: Chlorocebus sabaeus.
A further data set deals with LLC-PK1. Kind of data set: Cytotoxicity against a pig LLC-PK1 cells after 48 hrs by Neutral Red assay. In kind it is cell-based. To be noted: Sus scrofa, LLC-PK1, 48 h.
For another data set, the system named is HepG2. Kind of data set: Cytotoxicity against human HepG2 cells after 48 hrs by Neutral Red assay. In kind it is cell-based. To be noted: HepG2, 48 h.
Data set [7] can be described thus: Selectivity index, ratio of IC50 for pig LLC-PK1 cells to IC50 for Plasmodium falciparum D6. In kind it is toxicity, cell-based. The following applies: read-out: Ratio IC50.
Data set [8] is described as follows: Selectivity index, ratio of IC50 for african green monkey Vero cells to IC50 for Plasmodium falciparum W2. In kind it is toxicity, cell-based. To be noted: read-out: Ratio IC50.
In another data set the test system is Cryptococcus neoformans. Kind of data set: Antimicrobial activity against Cryptococcus neoformans by NCCLS method. In kind it is functional, organism-based.
[9] abbreviates: Plasmodium falciparum, D6, 72 h, read-out: IC50.
Setting [10] is: Plasmodium falciparum, W2, 72 h, read-out: IC50.
The mark [11] stands for this setting: Leishmania donovani, 48 h, read-out: IC50.

In brackets after ≈: the same amount, converted by molar mass. Activity calls are given as the source filed them. No cut-off for these calls is given here. Bounds are passed on as bounds.

`O=C1NC(c2c[nH]c3ccccc23)Nc2ccccc21` (configuration not stated): the outcome in the data set on Plasmodium falciparum [1], in the data set on Leishmania donovani and in the data set on Plasmodium falciparum [2] was inactive.

For the compound `Nc1nccc(-c2cn(C(=O)N3CCOCC3)c3ccc(Br)cc23)n1`, the outcome with Plasmodium falciparum [1], with Leishmania donovani and in the data set with Plasmodium falciparum [2] was inactive.

Usually IC50 stands for the concentration needed to halve the response being measured. By IC90 is commonly meant the concentration needed for an effect of 90%. For `CN1CCN(C(=O)n2cc(-c3ccnc(N)n3)c3ccccc32)CC1`, the selectivity ratio is above 5.1 in data set [3]; above 7.7 in [4]; above 7.7 in data set [5]; above 5.1 in [6]; above 7.7 in [7]; above 5.1 in data set [8]. Moreover, the IC50 was 9.63 µM with Plasmodium falciparum [1] (setting [9]); “Not Active” in the data set on Leishmania donovani; 14.5 µM with Plasmodium falciparum [2] (setting [10]); above 74 µM in the data set with Vero; above 74 µM in the data set with LLC-PK1; above 74 µM in the data set on HepG2. For the same compound, the IC90 result in the data set on Leishmania donovani is “inactive”.

Take `COc1cccc2c1C(=O)c1c(O)c3c(c(O)c1C2=O)C[C@@](O)(C(=O)CO)C[C@@H]3O[C@H]1C[C@H](N)[C@H](O)[C@H](C)O1` [DOXORUBICIN]: the IC50 with Vero was 7 µM; with LLC-PK1, below 1 µM; with HepG2, 2 µM.

Regarding `O=c1[nH]c(-c2c[nH]c3ccc(I)cc23)nc2ccccc12`, the concentration for half-maximal inhibition (IC50) result in the data set on Plasmodium falciparum [1] was “Not Active”; with Leishmania donovani (setting [11]), 9.17 µM; with Plasmodium falciparum [2] it was “Not Active”; in the data set on Vero it was above 65 µM; in the data set with LLC-PK1 it was above 65 µM; in the data set with HepG2, above 65 µM. In the data set with Leishmania donovani (Leishmania donovani, 48 h), the 90% effect level (IC90) was put at 14.2 µM.

As for `Nc1nccc(-c2cn(C(=O)c3ccccc3)c3ccccc23)n1`, the selectivity ratio in data set [3] was above 17.4; in data set [4], above 7; in data set [5], above 7; in [6], above 17.4; in data set [7], above 7; in [8], above 17.4. The IC50 is 11.4 µM in the data set with Plasmodium falciparum [1] (setting [9]); “Not Active” in the data set on Leishmania donovani; 4.58 µM in the data set with Plasmodium falciparum [2] (setting [10]); above 80 µM with Vero; above 80 µM in the data set with LLC-PK1; above 80 µM in the data set with HepG2. Also, the IC90 entry in the data set with Leishmania donovani was “inactive”.

For orientation: MBC means the lowest tested concentration that kills the bacteria rather than only halting them. By MIC is commonly meant the least concentration at which growth counts as inhibited. For the compound `C[C@@H]1[C@H](O)[C@@H](C)/C=C/C=C/C=C/C=C/C=C/C=C/C=C/[C@H](O[C@@H]2O[C@H](C)[C@@H](O)[C@H](N)[C@@H]2O)C[C@@H]2O[C@](O)(C[C@@H](O)C[C@@H](O)[C@H](O)CC[C@@H](O)C[C@@H](O)CC(=O)O[C@H]1C)C[C@H](O)[C@H]2C(=O)O` [AMPHOTERICIN B], in the data set with Cryptococcus neoformans, the MBC was 1.35 µM (≈ 1.25 µg/mL) and inhibition of growth (MIC) required 1.35 µM (≈ 1.25 µg/mL). In the data set on Leishmania donovani (Leishmania donovani, 48 h), this compound yielded an IC90 of 0.35 µM.

For `Cc1noc(C)c1Cn1cc(-c2ccnc(N)n2)c2cc(Br)ccc21`, the selectivity ratio is above 4.3 in data set [3]; above 6.5 in data set [4]; above 6.5 in [5]; above 4.3 in data set [6]; above 6.5 in data set [7]; above 4.3 in data set [8]. Besides, the IC50 in the data set with Plasmodium falciparum [1] (setting [9]) was 9.62 µM; in the data set on Leishmania donovani (setting [11]) it was 107 µM; in the data set on Plasmodium falciparum [2] (setting [10]), 14.6 µM; in the data set with Vero, above 63 µM; in the data set with LLC-PK1, above 63 µM; in the data set with HepG2, above 63 µM. For the same compound, the IC90 result in the data set with Leishmania donovani was “inactive”.

On to `COc1cccc(C(=O)n2cc(-c3ccnc(N)n3)c3ccccc32)c1`, for which the result in the data set on Plasmodium falciparum [1], in the data set with Leishmania donovani and in the data set with Plasmodium falciparum [2] was inactive.

For `Nc1nccc(-c2cn(C(=O)N3CCOCC3)c3ccccc23)n1`, the selectivity ratio was above 25.1 in data set [3]; above 19.3 in data set [4]; above 19.3 in [5]; above 25.1 in data set [6]; above 19.3 in data set [7]; above 25.1 in [8]. In addition, the half-inhibitory concentration (IC50) with Plasmodium falciparum [1] (setting [9]) is 4.01 µM; in the data set with Leishmania donovani, “Not Active”; with Plasmodium falciparum [2] (setting [10]), 3.08 µM; in the data set on Vero it was above 77 µM; in the data set with LLC-PK1, above 77 µM; with HepG2 it was above 77 µM. The IC90 result in the data set on Leishmania donovani was “inactive”.

Turning to `Nc1nccc(-c2cn(Cc3c4ccccc4cc4ccccc34)c3ccc(Br)cc23)n1`, the selectivity ratio in [3] was above 4.5; in [4] it was above 4.7; in data set [5], above 4.7; in data set [6] it was above 4.5; in data set [7], above 4.7; in data set [8] it was above 4.5. The concentration for half-maximal inhibition (IC50) with Plasmodium falciparum [1] (setting [9]) was 11.1 µM; in the data set with Leishmania donovani it was “Not Active”; in the data set on Plasmodium falciparum [2] (setting [10]), 11.6 µM; in the data set with Vero, above 52 µM; in the data set with LLC-PK1, above 52 µM; with HepG2, above 52 µM. For the same compound, in the data set with Leishmania donovani, the IC90 entry was “inactive”.

Turning to `N=C(N)c1ccc(OCCCCCOc2ccc(C(=N)N)cc2)cc1` [PENTAMIDINE], the 90% effect level in the data set on Leishmania donovani (Leishmania donovani, 48 h) (IC90) was put at 6.21 µM.

Turning to `Nc1nccc(-c2c[nH]c3ccccc23)n1`, the selectivity ratio in data set [3] was above 24.1; in data set [4], above 12.3; in data set [5], above 12.3; in data set [6], above 26.8; in [7] it was above 11.1; in data set [8], above 26.8. Further, the IC50 was 9.69 µM in the data set on Plasmodium falciparum [1] (setting [9]); “Not Active” in the data set with Leishmania donovani; 4.44 µM with Plasmodium falciparum [2] (setting [10]); 119 µM in the data set on Vero; 107 µM with LLC-PK1; above 119 µM in the data set with HepG2. Further, the IC90 result in the data set with Leishmania donovani was “inactive”.

In the case of `Nc1nccc(-c2cn(Cc3c4ccccc4cc4ccccc34)c3ccccc23)n1`, the selectivity ratio in data set [3] was above 5.7; in [4] it was above 8.9; in data set [5], above 8.9; in data set [6], above 5.7; in data set [7], above 8.9; in [8], above 5.7. Besides, the IC50 in the data set with Plasmodium falciparum [1] (setting [9]) is 7.06 µM; in the data set on Leishmania donovani (setting [11]) it was 80 µM; in the data set on Plasmodium falciparum [2] (setting [10]) it was 11 µM; in the data set with Vero, above 63 µM; with LLC-PK1, above 63 µM; in the data set with HepG2, above 63 µM.

Regarding `CN1CCN(C(=O)n2cc(-c3ccnc(N)n3)c3cc(Br)ccc32)CC1`, the IC50 entry with Plasmodium falciparum [1] was “Not Active”; in the data set on Leishmania donovani (setting [11]), 40.5 µM; in the data set with Plasmodium falciparum [2], “Not Active”; in the data set on Vero it was above 60 µM; in the data set on LLC-PK1 it was above 60 µM; in the data set with HepG2, above 60 µM. The compound further yielded a concentration for an effect of 90% (IC90) in the data set on Leishmania donovani (Leishmania donovani, 48 h) of 108 µM.

In the case of `Cc1noc(C)c1Cn1cc(-c2ccnc(N)n2)c2ccccc21`, the 50% inhibitory concentration (IC50) is 12.4 µM in the data set with Plasmodium falciparum [1] (setting [9]); “Not Active” in the data set on Leishmania donovani; “Not Active” in the data set with Plasmodium falciparum [2]; above 78 µM in the data set on Vero; above 78 µM in the data set on LLC-PK1; above 78 µM with HepG2. Also, the selectivity ratio in data set [4], in data set [5] and in data set [7] was above 6.3 in each case. Moreover, the IC90 entry with Leishmania donovani is “inactive”.

With `C[C@@H]1CC[C@H]2[C@@H](C)C(=O)O[C@@H]3O[C@@]4(C)CC[C@@H]1[C@]32OO4` [ARTEMISININ], the IC50 in the data set on Plasmodium falciparum [1] (setting [9]) and in the data set with Plasmodium falciparum [2] (setting [10]) was below 0.09 µM each time.
